Experimental data taken from patent publication US12590950B2, “Methods for predicting ER-mediated DNA damage” (UNIVERSITY OF MASSACHUSETTS, priority 2019, dated 2026).
Like-named read-outs stand apart in the source and are kept apart here.

Assays:
ER [1] = target: T1, ER (Homo sapiens, UniProt P03372); parameters: host or cells: MCF-7; conditions: MCF-7, 1 μM; cited from earlier work
T1 sequence (P03372 1-595): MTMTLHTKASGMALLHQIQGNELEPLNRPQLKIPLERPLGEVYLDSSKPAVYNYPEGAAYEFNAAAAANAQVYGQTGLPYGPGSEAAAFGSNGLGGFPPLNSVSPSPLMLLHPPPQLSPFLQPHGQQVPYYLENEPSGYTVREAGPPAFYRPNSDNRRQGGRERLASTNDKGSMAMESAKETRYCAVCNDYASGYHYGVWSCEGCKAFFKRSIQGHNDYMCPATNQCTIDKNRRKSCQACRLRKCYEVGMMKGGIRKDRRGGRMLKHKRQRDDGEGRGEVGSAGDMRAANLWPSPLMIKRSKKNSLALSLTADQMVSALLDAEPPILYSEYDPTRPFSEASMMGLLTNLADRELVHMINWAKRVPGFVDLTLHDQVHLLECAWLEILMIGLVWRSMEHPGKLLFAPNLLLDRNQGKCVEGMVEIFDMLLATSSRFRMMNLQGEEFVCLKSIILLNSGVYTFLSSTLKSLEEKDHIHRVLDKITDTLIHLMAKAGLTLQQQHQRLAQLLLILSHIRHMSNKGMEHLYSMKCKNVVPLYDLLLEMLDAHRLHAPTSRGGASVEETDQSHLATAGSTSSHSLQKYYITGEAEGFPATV

[2] = development and reproductive toxicity assays; cited from earlier work
76N-Tert-ESR1 cell line [3] = assay: S9.6 immunostaining (R-loops) in 76N-Tert-ESR1 cells induced with doxycycline; conditions: 76N-Tert-ESR1 after induction of ERα with doxycycline, 5 μM
[4] = system: normal human keratin cell lines; conditions: cited from earlier work
AREG and PGR = assay: RT-qPCR of endogenous ER target genes AREG and PGR in T47D and MCF-7 cell lines; assay type: cell-based, human; conditions: for induction of endogenous ER target genes AREG and PGR: 1 μM, T47D and MCF-7; for transcription by endogenous gene expression: 5 μM BP3, 1 μM PP
estrogen receptor = target: T2, estrogen receptor (Homo sapiens, UniProt P03372); assay: Luciferase reporter assay (ERE-luciferase transactivation) in T47D-KBluc cells; assay type: cell-based; conditions: for LOEC (lowest-observed-effect-concentration) for transcription in luciferase assay: T47D-KBluc, 24 h treatment
T2 sequence (P03372 1-595): T1 sequence (P03372 1-595)

T47D cells = assay: S9.6 immunostaining (R-loops) in T47D cells; assay type: cell-based, human; conditions: 5 μM, vs vehicle-treated control
Description: Immunostaining: Cells were grown in clearing media for 48 h and plated on 20 mm coverslip in 12 well plates with a density of 2×10^5 cells/well. After 24 h of growth, cells were treated with 10 nM E2, 1 or 5 μM BP3, and 1 or 5 μM PP with or without 1 μM fulvestrant. γH2AX/ERα: Cells were fixed in ice-cold methanol (100%) for 10 mins and quenched with 0.1 M Glycine for 15 mins. Cells were washed with 1×PBS, blocked in 2% BSA/PBS with 0.1% Triton-X 100 for 1 hr at room temperature (RT), incubated overnight with γH2AX antibody (Cell Signaling #9718 S) or ERα antibody (Santa Cruz Biotechnology #sc-8002) at 4° C. and 1 hour with secondary antibody. S9.6: Cells were fixed in ice-cold 100% methanol for 10 min at −20° C., permeabilized in 100% acetone for 1 min at RT, blocked for 30 min in saline sodium citrate pH 7 (SSC, 4×), 3% BSA, 0.1% Triton-X and incubated with S9.6 (Kerafast #ENH001) 2 hr at RT followed by 1 h with secondary antibody. If indicated, slides were treated with RNase H (NEB #M0297L) for 4 hr at 37° C. prior to incubation with primary antibody. Stained cells were mounted with Vectashield mounting medium containing DAPI (Vector Laboratories #H-1200). […] Analysis of γH2AX and S9.6 intensity per nucleus or foci per nucleus was calculated using Nikon analysis software, where DAPI was used as a mask for the nucleus.

[5] = Acute oral exposure of ovariectomized mice: uterine weight; assay type: in vivo, mouse; conditions: 4 days, BP3 3000, PP 10000 μg/kg/d
Text: Animal Treatment: Forty mature female mice (8 weeks old) BALB/c mice were purchased from Jackson Laboratory and housed in temperature-controlled facilities with a 12-hour alternating day/night light cycle and fed LabChow 5058 ad libitum. All procedures were in accordance with the national guidelines for the care and use of animals and approved by the University of Massachusetts Amherst's Institutional Animal Care and Use Committee.
The mice were ovariectomized before treatment. Briefly, each mouse was anaesthetized with a mix of isofluorance and oxygen. The flanks were shaved, sterilized with betadine and cleaned with alcohol. An incision was made to the skin on the right flank. The underlying muscle layer was nicked to reveal a small hole through which ovary was pulled out by grasping the periovarian fat. A Serrifin clamp was used to hold the ovary. After making sure the blood vessels were constricted to prevent […], the ovary was cut from the uterine horn. The periovarian fat was restored into the peritoneum. The peritoneum was closed with one or two stiches and the skin was closed with 9 mm wound clips. The procedure was repeated on the contralateral side. The mouse was monitored for a week post-procedure and wound clips were removed after 10 days. […]

[6] = also printed as 200 μg/L; cited from earlier work
76N-Tert-ESR1 cell line [7] = conditions: human, 5 µM
ER [8] = target: T1, ER; conditions: 10 μM; cited from earlier work

| Structure (SMILES) | ER agonism in transactivation and proliferation assays (ER [1]) | no-adverse-effect-level (NOAEL) dose [2] [µg/kg/day] | nuclear S9.6 foci (76N-Tert-ESR1 cell line [3]) | concentration inducing γH2AX foci [4] [µM] | concentration at which transcriptional response is observed (AREG and PGR) | induction of endogenous ER target genes AREG and PGR (AREG and PGR) | transcription by endogenous gene expression (AREG and PGR) | LOEC (lowest-observed-effect-concentration) for transcription in luciferase assay (estrogen receptor) [µM] | Relative Transactivation Activity at 90%ile or 95%ile (% RTA vs E2) (estrogen receptor; at 95%ile urine concentration of non-pregnant women) [%] | Relative Transactivation Activity at 90%ile or 95%ile (% RTA vs E2) (estrogen receptor; at 95%ile urine concentration of pregnant women) [%] | maximum relative transactivation activity (RTA) compared to 10 nM E2 (estrogen receptor; maximum) [%] | nuclear S9.6 foci (R-loops) (T47D cells) | uterine weights compared to the control treatment [5] | serum level following exposure in women [6] | nuclear S9.6 foci (76N-Tert-ESR1 cell line [7]) | induction of gene expression (ERE-CAT reporter) (ER [8]) [fold] |
| --- | --- | --- | --- | --- | --- | --- | --- | --- | --- | --- | --- | --- | --- | --- | --- | --- |
| COc1ccc(C(=O)c2ccccc2)c(O)c1 [BP3, 2-Hydroxy-4-methoxybenzophenone] | weak agonist | 3000 | increased number of nuclear S9.6 foci significantly over vehicle-treated control | 10 | greater than 5 μM | poor agonists | no significant increase in transcription | 5 | 18.91 ± 6.62 | 27.16±6.2 | 37 | significantly higher | not sufficient | approximately 0.87 μM |  |  |
| CCCOC(=O)c1ccc(O)cc1 [PP, propyl parahydroxybenzoate] |  | 10000 |  |  | greater than 5 μM | poor agonists | no significant increase in transcription | 0.5 |  |  |  | significantly higher | not sufficient |  | increased number of nuclear S9.6 foci significantly over vehicle-treated control | 1.3 |
